The results in this text go back to US10106515B2, “1-(cyclopent-2-en-1-yl)-3-(2-hydroxy-3-(arylsulfonyl)phenyl)urea derivatives as CXCR2 inhibitors” (GLAXOSMITHKLINE INTELLECTUAL PROPERTY DEVELOPMENT LIMITED, priority 2014, dated 2018).

Where a name gives a salt, the structure may show the parent alone.

The test system of experiment [1] is upregulation of CD11b in GROα stimulated neutrophils in human whole blood. Briefly: Human whole blood assay (CD11b upregulation). The format is cell-based. The following applies: Neutrophil, inhibition of CD11b upregulation, GROα 33 nM final, flow cytometry, read-out: pIC50 (human whole blood assay) (converted). In short, it runs like this: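 Heparinised human whole blood preincubated 15 min at 37 °C with compound (10-point, 1:3 dilutions), then stimulated with 33 nM final GROα for 15 min at 37 °C. CD11b-FITC/CD16-PE staining on ice, lysis/fixation, flow cytometry; neutrophils gated by side scatter and CD16.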
A general note: In flow cytometry, cells or beads pass a laser one at a time.

The next experiment has as its target T1, recombinant human CXCR2 (Homo sapiens, UniProt P25025).
T1 construct: TEV protease site; Gal4-VP16 transcription factor
T1 sequence (P25025 1-360): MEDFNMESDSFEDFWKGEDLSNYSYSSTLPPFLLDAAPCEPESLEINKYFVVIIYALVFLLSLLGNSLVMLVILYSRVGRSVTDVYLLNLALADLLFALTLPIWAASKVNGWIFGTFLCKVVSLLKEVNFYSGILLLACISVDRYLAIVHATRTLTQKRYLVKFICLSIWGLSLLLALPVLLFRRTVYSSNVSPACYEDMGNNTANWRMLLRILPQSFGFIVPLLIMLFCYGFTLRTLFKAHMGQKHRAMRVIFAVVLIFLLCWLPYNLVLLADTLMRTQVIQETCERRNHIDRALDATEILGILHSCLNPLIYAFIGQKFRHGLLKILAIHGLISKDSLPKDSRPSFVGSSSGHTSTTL
Put plainly: CXCR2 Tango assay. The settings on record: mean pIC50 of multiple test results; stimulated with 80 nM hCXCL1; reporter gene blue/green emission ratio; read-out: pIC50 (CXCR2 Tango assay) (converted). The format is cell-based. In short, it runs like this:
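Mean pIC50 comes from sigmoidal fits of the blue/green (460/530 nm) CCF4-AM ratio, normalized between hCXCL1-stimulated and DMSO controls. Compounds in 10-point dose response were incubated overnight at 37 °C with recombinant human CXCR2 Tango cells (~10,000/well) and 80 nM hCXCL1, with reporter read-out via arrestin-TEV release of Gal4-VP16.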
In general terms: In a reporter assay the amount or activity of a reporter protein is the signal.

For `CC1=CCCC1NC(=O)Nc1ccc(Cl)c(S(=O)(=O)C2(C)CCOCC2)c1O` (stereo not shown) [Compound 107, 1-(4-chloro-2-hydroxy-3-((4-methyltetrahydro-2H-pyran-4-yl)sulfonyl)phenyl)-3-(2-methylcyclopent-2-en-1-yl)urea], the IC50 in experiment [1] is 25.1 to 2510 nM; at recombinant human CXCR2, no more than 10 nM.
The corresponding values for `CC1=CCC[C@H]1NC(=O)Nc1ccc(Cl)c(S(=O)(=O)N2CCNCC2)c1O` [Compound 199, (R)-1-(4-chloro-2-hydroxy-3-(piperazin-1-ylsulfonyl)phenyl)-3-(2-methylcyclopent-2-en-1-yl)urea, trifluoroacetic acid salt] are 25.1 to 2510 nM and no more than 10 nM.
